Results taken from PubChem BioAssay (NCI).
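Each compound was tested at five concentrations against cells in 96-well plates for 48 hours. The concentration for 50% growth inhibition is given as GI50. At the TGI there is no net growth.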

What was measured:
Assay in all cases: growth of human tumour cells (NCI), 48 h
IGROV1 ovarian = system: IGROV1 ovarian
SR leukemia = system: SR leukemia
HOP-62 NSCLC = system: HOP-62 NSCLC
NCI-H23 lung = system: NCI-H23 lung
UO-31 renal = system: UO-31 renal
ACHN renal = system: ACHN renal
OVCAR-8 ovarian = system: OVCAR-8 ovarian
U251 CNS = system: U251 CNS
MALME-3M melanoma = system: MALME-3M melanoma
A498 renal = system: A498 renal

| Structure (SMILES) | TGI (IGROV1 ovarian) | TGI (SR leukemia) | TGI (HOP-62 NSCLC) | TGI (NCI-H23 lung) | TGI (UO-31 renal) | TGI (ACHN renal) | TGI (OVCAR-8 ovarian) | TGI (U251 CNS) | TGI (MALME-3M melanoma) | TGI (A498 renal) | GI50 (IGROV1 ovarian) | GI50 (SR leukemia) | GI50 (HOP-62 NSCLC) | GI50 (NCI-H23 lung) | GI50 (UO-31 renal) | GI50 (ACHN renal) | GI50 (OVCAR-8 ovarian) | GI50 (U251 CNS) | GI50 (MALME-3M melanoma) | GI50 (A498 renal) |
| --- | --- | --- | --- | --- | --- | --- | --- | --- | --- | --- | --- | --- | --- | --- | --- | --- | --- | --- | --- | --- |
| COc1cc(C(C)O)c[n+](CCc2c[nH]c3ccccc23)c1 (stereo not given) | > 100 µM | > 100 µM | > 100 µM | > 100 µM | > 100 µM | > 100 µM | > 100 µM | > 100 µM | > 100 µM | > 100 µM |  |  |  |  |  |  |  |  |  |  |
| COc1ccc(Cn2cc3c(c2-c2ccccc2)CC(C)(C)c2cnoc2-3)cc1 | > 100 µM | > 100 µM | > 100 µM | > 100 µM | > 100 µM | > 100 µM | > 100 µM | > 100 µM | > 100 µM | 7.72 µM | 2.3 µM | 0.483 µM | 4.05 µM | 2.29 µM | 3.08 µM | 5.06 µM | 4.66 µM | 2.99 µM | 1.63 µM | 1.4 µM |
| CCOC(=O)C1=C(C)N(NC(=O)Nc2ccccc2)C(=O)C1=P(c1ccccc1)(c1ccccc1)c1ccccc1 | > 100 µM | 56.1 µM | > 100 µM | > 100 µM | > 100 µM | > 100 µM | > 100 µM | > 100 µM | > 100 µM | > 100 µM |  |  |  |  |  |  |  |  |  |  |
| CC(=O)CSCc1ccccn1 | > 100 µM | 56.1 µM | > 100 µM | > 100 µM | > 100 µM | > 100 µM | > 100 µM | > 100 µM | 9.99 µM | > 100 µM |  |  |  |  |  |  |  |  |  |  |
| COc1cc2ncnc(Nc3ccc(C)c(O)c3)c2cc1OC | > 12 µM | > 25 µM | > 25 µM | > 25 µM | > 17.2 µM | > 25 µM | > 25 µM | > 25 µM | > 25 µM | 18 µM | 1.98 µM | > 25 µM | > 25 µM | > 25 µM | 1.59 µM | 0.799 µM | 11.2 µM | 15.8 µM | > 25 µM | 5.56 µM |
| CN(C)C(=O)c1cc2cnc(Nc3ccc(-c4csc5c(=S)cc(N6CCOCC6)oc45)cc3)nc2n1C1CCCC1 | > 50 µM | > 50 µM | > 50 µM | > 19.5 µM | 1.54 µM | > 50 µM | > 50 µM | > 50 µM | 31.1 µM | 1.12 µM | 0.509 µM | 0.145 µM | 0.694 µM | 0.699 µM | 0.227 µM | 0.377 µM | 0.744 µM | 0.481 µM | 0.778 µM | 0.103 µM |
| CCOC(=O)CC1(C(=O)OCC)c2[nH]c3ccccc3c2CCN1Cc1ccccc1 (stereo not given) | 52.9 µM | 52.6 µM | 33.6 µM | 33 µM | 64.1 µM | 50.9 µM | 78.7 µM | 29 µM | 37.3 µM | 35.9 µM |  |  |  |  |  |  |  |  |  |  |
| COC(=O)C1=CNC=C(C(=O)OC)C1C1=CC(=O)C(C)=CC1=O | 27.5 µM | 43.5 µM | 28.2 µM | 31 µM | 24.5 µM | 8.18 µM | 29.1 µM | 32.1 µM | 27.5 µM | 33.6 µM | 14.3 µM | 9.37 µM | 14.8 µM | 16.5 µM | 12 µM | 2.52 µM | 14.3 µM | 16.5 µM | 14.1 µM | 13.1 µM |
| COC1=C(C)C(=O)c2c(c(COC(N)=O)c3n2CC2C3N2C)C1=O (stereo not given) | 0.351 µM | < 0.0354 µM | 0.074 µM | < 0.0363 µM | 0.232 µM | < 0.0139 µM | 0.216 µM | 0.0231 µM | 0.164 µM | 0.206 µM |  |  |  |  |  |  |  |  |  |  |
| Cc1nc(N)sc1C(=O)/C=C\c1ccc2c(c1)OCO2 | > 100 µM | > 100 µM | > 100 µM | > 100 µM | > 100 µM | > 100 µM | > 100 µM | > 100 µM | > 100 µM | > 100 µM |  |  |  |  |  |  |  |  |  |  |
| COc1cc(-c2ccc3c(c2)NC(=O)/C3=C\c2ccc[nH]2)ccc1O | > 50 µM | > 30.5 µM | > 50 µM | > 50 µM | > 50 µM | > 50 µM | > 50 µM | > 50 µM | > 50 µM | 39.2 µM | 0.0697 µM | 0.014 µM | 0.0563 µM | 0.0662 µM | 0.0354 µM | 0.0417 µM | 0.0252 µM | 0.0221 µM | 2.65 µM | 2.09 µM |
| COC(=O)C1=C(C)N(NC(=O)OC(C)(C)C)C(=O)C1=P(c1ccccc1)(c1ccccc1)c1ccccc1 | > 100 µM | > 100 µM | > 100 µM | > 100 µM | > 100 µM | > 100 µM | > 100 µM | > 100 µM | > 100 µM | > 100 µM |  |  |  |  |  |  |  |  |  |  |
| CCC[CH2][Sn]1([CH2]CCC)[O]CC(CN2CCCC2)[O]1 (stereo not given) | 37.1 µM | 39.5 µM | 73.8 µM | 27.7 µM | 31.3 µM | 31.4 µM | 29.4 µM | 29.1 µM | 17.4 µM | 46.9 µM | 21.1 µM | 10.4 µM | 34.1 µM | 11.6 µM | 17 µM | 17.3 µM | 14.1 µM | 15.3 µM | 4.59 µM | 28.5 µM |
| O=C(O)C1OC(n2cc(F)c(=O)[nH]c2=O)CC1O (stereo not given) | > 100 µM | > 100 µM | > 89.2 µM | > 100 µM | > 100 µM | > 59.1 µM | > 100 µM | > 100 µM | > 100 µM | > 100 µM |  |  |  |  |  |  |  |  |  |  |
| COc1nc2ccccc2cc1-c1nc2c(cnn2-c2ccc(Br)cc2)c(=O)[nH]1 | > 50 µM | 5.41 µM | 7.39 µM | 10.9 µM | > 50 µM | > 50 µM | > 50 µM | 7.42 µM | > 50 µM | 0.521 µM | 0.0591 µM | 0.0116 µM | 0.0363 µM | 0.0825 µM | 0.0603 µM | 0.0345 µM | 0.0577 µM | 0.0241 µM | 0.519 µM | 0.0139 µM |
